Where two headings read alike, the source gives them in different places.
Tests used:
CHI Log D procedure = assay type: physicochemical; details: for chromatographic logD: pH 7.4, CHI Log D
[1] = molecular target: T1, beta-catenin/TCF4 engagement (Homo sapiens, UniProt P35222); test: Nano-BRET target engagement assay (B-cat-Halo & TCF4-Luc in HEK293 cells); assay type: cell-based; details: for inhibition at 10 µM: read-out: NanoBRET % inh @ 10 uM
T1 construct: expressed in transfected cells; host or cells: HEK293
T1 sequence (P35222 1-781): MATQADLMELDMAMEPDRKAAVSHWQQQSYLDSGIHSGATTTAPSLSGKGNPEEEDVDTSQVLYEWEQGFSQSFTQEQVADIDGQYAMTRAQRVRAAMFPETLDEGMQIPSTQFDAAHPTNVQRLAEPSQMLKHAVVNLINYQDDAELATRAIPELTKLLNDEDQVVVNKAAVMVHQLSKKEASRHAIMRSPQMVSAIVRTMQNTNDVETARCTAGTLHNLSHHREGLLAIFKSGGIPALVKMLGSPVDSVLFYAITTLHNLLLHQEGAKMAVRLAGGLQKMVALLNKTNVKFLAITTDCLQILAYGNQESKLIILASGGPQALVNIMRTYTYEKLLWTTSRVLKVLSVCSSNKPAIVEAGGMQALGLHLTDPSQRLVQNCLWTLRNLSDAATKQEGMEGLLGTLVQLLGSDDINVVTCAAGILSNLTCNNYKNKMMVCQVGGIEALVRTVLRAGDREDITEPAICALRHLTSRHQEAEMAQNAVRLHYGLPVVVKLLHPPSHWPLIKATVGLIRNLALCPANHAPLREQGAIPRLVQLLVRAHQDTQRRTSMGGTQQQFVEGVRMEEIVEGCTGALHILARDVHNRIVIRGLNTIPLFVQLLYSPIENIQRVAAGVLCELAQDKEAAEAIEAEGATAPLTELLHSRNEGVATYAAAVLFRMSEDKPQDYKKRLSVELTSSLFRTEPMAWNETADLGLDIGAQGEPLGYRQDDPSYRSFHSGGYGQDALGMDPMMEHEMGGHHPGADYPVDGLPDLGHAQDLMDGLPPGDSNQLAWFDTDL

[2] = molecular target: T2, full-length beta-Catenin (Uniprot ID P35222) (Homo sapiens, UniProt P35222); test: Fluorescence polarization IC50 (beta-catenin / 5FAM-TCF4 10-53 competition); assay type: binding
T2 construct: 10 nM full-length beta-Catenin (Uniprot ID P35222)
T2 sequence (P35222 1-781): T1 sequence (P35222 1-781)

[3] = fluorescence polarization, read-out: beta-Catenin FP IC50
[4] = Abs IC50, read-out: NanoBRET Abs IC50
[5] = fluorescence polarization, beta-catenin, read-out: FP EC50

SMILES	CHI Log D (CHI Log D procedure; pH 7.4)	IC50 ([2]; read-out: FP EC50)	IC50 ([2]; read-out: beta-Catenin FP IC50)	IC50 ([1]; read-out: NanoBRET Abs IC50)	other results
CC[C@H](C)[C@@H]1NC(=O)[C@H](CC(=O)O)NC(=O)[C@]2(CC=CCCCC3(CCCC=CCCCCCC[C@@](C)(C(=O)N[C@@H](Cc4ccccc4)C(=O)N[C@@H](Cc4csc5ccccc45)C(=O)N[C@@H](Cc4c[nH]cn4)C(N)=O)NC(=O)[C@H](CC(N)=O)NC(=O)[C@H](Cc4ccccc4)NC(=O)[C@H](C)NC(=O)[C@H](C)NC(=O)[C@H](CC(=O)O)NC(=O)[C@H](CC(=O)O)NC3=O)NC1=O)CCCN2C(C)=O (stereo partly drawn) [I-470, Ac-PL3-Asp-Ile-B5-Asp-Asp-Ala-Ala-Phe-Asn-S8-Phe-BztA-His-NH2]	2.394	11 nM			inhibition at 10 µM ([1]; HEK293, @ 10 uM): 14.1%; IC50 [2, 3]: 11 nM
CC(=O)N1CCC[C@]12CC=CCCCC1(CCCC=CCCCCCC[C@@](C)(C(=O)N[C@@H](Cc3ccccc3)C(=O)N[C@@H](Cc3csc4ccccc34)C(=O)N[C@@H](CC(N)=O)C(N)=O)NC(=O)[C@H](CC(N)=O)NC(=O)[C@H](Cc3ccccc3)NC(=O)[C@H](C)NC(=O)[C@H](C)NC(=O)[C@H](CCC(=O)O)NC(=O)[C@H](CC(=O)O)NC1=O)NC(=O)[C@H](CC(C)C)NC(=O)[C@H](CC(=O)O)NC2=O (stereo partly drawn) [I-752, Ac-PL3-Asp-Leu-B5-Asp-Glu-Ala-Ala-Phe-Asn-S8-Phe-BztA-Asn-NH2]	2.419	16 nM			IC50 [1, 4]: 9900 nM; inhibition at 10 µM ([1]; HEK293, @ 10 uM): 53%; IC50 ([1]; absolute IC50, read-out: NanoBRET Abs IC50): 9900 nM; IC50 [2, 3]: 16 nM
CC(=O)N1CCC[C@]12CC=CCCCC1(CCCC=CCCCOC(=O)N3CC[C@@](C(=O)N[C@@H](Cc4ccsc4)C(=O)N[C@@H](Cc4cn(C)c5ccccc45)C(=O)N[C@@H](Cc4c[nH]cn4)C(N)=O)(C3)NC(=O)[C@H](CC(N)=O)NC(=O)[C@H](Cc3ccccc3)NC(=O)[C@H](C)NC(=O)[C@H](C)NC(=O)[C@H](CC(=O)O)NC(=O)[C@H](CC(=O)O)NC1=O)NC(=O)[C@H](CC(C)(C)C)NC(=O)[C@H](CC(=O)O)NC2=O (stereo partly drawn) [I-799, Ac-PL3-Asp-Npg-B5-Asp-Asp-Ala-Ala-Phe-Asn-PyrS2-3Thi-1MeW-His-NH2]			92 nM		chromatographic logD (CHI Log D procedure): 2.06; inhibition at 10 µM ([1]; HEK293, 10 uM): 0.9%
CC(=O)N1CCC[C@]12CC=CCCCC1(CCCC=CCCCOC(=O)N3CC[C@@](C(=O)N[C@@H](Cc4ccccc4Cl)C(=O)N[C@@H](Cc4csc5ccccc45)C(=O)N[C@@H](CCC(N)=O)C(N)=O)(C3)NC(=O)[C@H](CC(C)C)NC(=O)[C@H](Cc3ccccc3)NC(=O)[C@H](C)NC(=O)[C@H](C)NC(=O)[C@H](CC(=O)O)NC(=O)[C@H](CC(=O)O)NC1=O)NC(=O)[C@H](CC1CCCCC1)NC(=O)[C@H](CC(=O)O)NC2=O (stereo partly drawn) [I-1076, Ac-PL3-Asp-Cha-B5-Asp-Asp-Ala-Ala-Phe-Leu-PyrS2-2C1F-BztA-Gln-NH2]	2.049		448 nM		IC50 [2, 5]: 448 nM
CC(=O)N1CCC[C@]12CC=CCCCC1(CCCC=CCCCCCC[C@@](C)(C(=O)N[C@@H](Cc3ccccc3Cl)C(=O)N[C@@H](Cc3csc4ccccc34)C(=O)N[C@@H](C(N)=O)[C@H](C)O)NC(=O)[C@H]([C@@H](C)O)NC(=O)[C@H](Cc3ccccc3)NC(=O)[C@H](C)NC(=O)[C@H](C)NC(=O)[C@H](CCC(=O)O)NC(=O)[C@H](CC(=O)O)NC1=O)NC(=O)[C@H](CC(C)(C)C)NC(=O)[C@H](CC(=O)O)NC2=O (stereo partly drawn) [I-1094, Ac-PL3-Asp-Npg-B5-Asp-Glu-Ala-Ala-Phe-Thr-S8-2C1F-BztA-dThr-NH2]	3.271		46 nM		IC50 [2, 5]: 46 nM
CC(=O)N1CCC[C@]12CC=CCCCC1(CCCC=CCCCOC(=O)N3CC[C@@](C(=O)N[C@@H](Cc4ccsc4)C(=O)N[C@@H](Cc4csc5ccccc45)C(=O)N[C@@H](CCC(N)=O)C(N)=O)(C3)NC(=O)[C@H](CC(N)=O)NC(=O)[C@H](Cc3ccccc3)NC(=O)[C@H](C)NC(=O)[C@H](C)NC(=O)[C@H](CC(=O)O)NC(=O)[C@H](CC(=O)O)NC1=O)NC(=O)[C@H](CC(C)(C)C)NC(=O)[C@H](CC(=O)O)N(C)C2=O (stereo partly drawn) [I-1160, Ac-PL3-NMeD-Npg-B5-Asp-Asp-Ala-Ala-Phe-Asn-PyrS2-3Thi-BztA-Gln-NH2]					chromatographic logD (CHI Log D procedure): 1.41; IC50 [2, 3]: 575 nM

Further compounds by falling IC50 ([2]; read-out: beta-Catenin FP IC50), results first:

CHI Log D (CHI Log D procedure; pH 7.4)	IC50 ([2]; read-out: FP EC50)	IC50 ([2]; read-out: beta-Catenin FP IC50)	IC50 ([1]; read-out: NanoBRET Abs IC50)	SMILES	other results
2.043	9 nM	9 nM	31400 nM	CC(=O)N1CCC[C@]12CC=CCCCC1(CCCC=CCCCCOC(=O)N3CC[C@@](C(=O)N[C@@H](Cc4ccsc4)C(=O)N[C@@H](Cc4csc5ccccc45)C(=O)N[C@@H](CCC(N)=O)C(N)=O)(C3)NC(=O)[C@H](CC(N)=O)NC(=O)[C@H](Cc3ccccc3)NC(=O)[C@H](C)NC(=O)[C@H](C)NC(=O)[C@H](CC(=O)O)NC(=O)[C@H](CC(=O)O)NC1=O)NC(=O)[C@H](CC(C)(C)C)NC(=O)[C@H](CC(=O)O)NC2=O (stereo partly drawn) [I-768, Ac-PL3-Asp-Npg-B5-Asp-Asp-Ala-Ala-Phe-Asn-PyrS3-3Thi-BztA-Gln-NH2]	
2.069	7 nM	7 nM	> 20000 nM	CC(=O)N1CCC[C@]12CC=CCCCC1(CCCC=CCCCOC(=O)N3CC[C@@](C(=O)N[C@@H](Cc4ccsc4)C(=O)N[C@@H](Cc4csc5ccccc45)C(=O)N[C@@H](Cc4c[nH]cn4)C(N)=O)(C3)NC(=O)[C@H](CCC(N)=O)NC(=O)[C@H](Cc3ccccc3)NC(=O)[C@H](C)NC(=O)[C@H](C)NC(=O)[C@H](CC(=O)O)NC(=O)[C@H](CC(=O)O)NC1=O)NC(=O)[C@H](CC(C)(C)C)NC(=O)[C@H](CC(=O)O)NC2=O (stereo partly drawn) [I-772, Ac-PL3-Asp-Npg-B5-Asp-Asp-Ala-Ala-Phe-Gln-PyrS2-3Thi-BztA-His-NH2]	
2.207		5 nM		CC(=O)N1CCC[C@]12CC=CCCCC1(CCCC=CCCCOC(=O)N3CC[C@@](C(=O)N[C@@H](Cc4ccsc4)C(=O)N[C@@H](Cc4csc5ccccc45)C(=O)N[C@@H](CCC(N)=O)C(N)=O)(C3)NC(=O)[C@H](CC(N)=O)NC(=O)[C@H](Cc3ccccc3)NC(=O)[C@H](C)NC(=O)[C@H](C)NC(=O)[C@H](CN(CC(=O)O)CC(F)(F)F)NC(=O)[C@H](CC(=O)O)NC1=O)NC(=O)[C@H](CC(C)(C)C)NC(=O)[C@H](CC(=O)O)NC2=O (stereo partly drawn) [I-761, Ac-PL3-Asp-Npg-B5-Asp-TfeGA-Ala-Ala-Phe-Asn-PyrS2-3Thi-BztA-Gln-NH2]	logD (CHI Log D procedure; pH 7.4): 2.2; inhibition at 10 µM ([1]; HEK293, @ 10 uM): 63.4%; IC50 ([1]; read-out: NanoBRET IC50): 5000 nM; IC50 ([2]; read-out: bCat FP IC50): < 5 nM
2.307		5 nM	13000 nM	CC(=O)N1CCC[C@]12CC=CCCCC1(CCCC=CCCCOC(=O)N3CC[C@@](C(=O)N[C@@H](Cc4ccsc4)C(=O)N[C@@H](Cc4csc5ccccc45)C(=O)N[C@@H](Cc4c[nH]cn4)C(N)=O)(C3)NC(=O)[C@H](CC(N)=O)NC(=O)[C@H](Cc3ccccc3)NC(=O)[C@H](C)NC(=O)[C@H](C)NC(=O)[C@H](CN(CC(=O)O)CC(F)(F)F)NC(=O)[C@H](CC(=O)O)NC1=O)NC(=O)[C@H](CC(C)(C)C)NC(=O)[C@H](CC(=O)O)NC2=O (stereo partly drawn) [I-769, Ac-PL3-Asp-Npg-B5-Asp-TfeGA-Ala-Ala-Phe-Asn-PyrS2-3Thi-BztA-His-NH2]	IC50 [1, 4]: 13000 nM
2.358		5 nM	13700 nM	CC(=O)N1CCC[C@]12CC=CCCCC1(CCCC=CCCCOC(=O)N3CC[C@@](C(=O)N[C@@H](Cc4ccsc4)C(=O)N[C@@H](Cc4csc5ccccc45)C(=O)N[C@@H](Cc4c[nH]cn4)C(N)=O)(C3)NC(=O)[C@H](CC(N)=O)NC(=O)[C@H](Cc3ccccc3)NC(=O)[C@H](C)NC(=O)[C@H](C)NC(=O)[C@H](CN(CC(=O)O)CC(F)(F)F)NC(=O)[C@H](CC(=O)O)NC1=O)NC(=O)[C@H](CC(C)(C)C)NC(=O)[C@H](CC(=O)O)NC2=O (stereo partly drawn) [I-770, Ac-PL3-Asp-Npg-B5-Asp-TfeGA-Ala-Ala-Phe-Asn-PyrS2-3Thi-BztA-His-NH2]	IC50 [1, 4]: 13700 nM
2.031		5 nM	37300 nM	CC(=O)N1CCC[C@]12CC=CCCCC1(CCCC=CCCCOC(=O)N3CC[C@@](C(=O)N[C@@H](Cc4ccsc4)C(=O)N[C@@H](Cc4csc5ccccc45)C(=O)N[C@@H](Cc4c[nH]cn4)C(N)=O)(C3)NC(=O)[C@H](CCC(N)=O)NC(=O)[C@H](Cc3ccccc3)NC(=O)[C@H](C)NC(=O)[C@H](C)NC(=O)[C@H](CC(=O)O)NC(=O)[C@H](CC(=O)O)NC1=O)NC(=O)[C@H](CC(C)(C)C)NC(=O)[C@H](CC(=O)O)NC2=O (stereo partly drawn) [I-771, Ac-PL3-Asp-Npg-B5-Asp-Asp-Ala-Ala-Phe-Gln-PyrS2-3Thi-BztA-His-NH2]	

Source: patent US20240116985A1, “STAPLED PEPTIDES AND METHODS THEREOF” (priority 2020, published 2024)
